Assay results: ChEMBL document CHEMBL4418495, “Entpd5 inhibitors” (2012)
Calls of active or inactive are those of the source. No rule for the calls is given here.

Key:
[1] = molecular target: T1, Nucleoside diphosphate phosphatase ENTPD5 (Homo sapiens) (UniProt O75356); experiment: Inhibition of human recombinant ENTPD5 expressed in insect cells assessed as reduction in UDP hydrolysis at 1 uM incubated for 1 hr in presence of UMP, GTP and ATP by Escherichia coli UMP kinase pyrH catalyzed UMP phosphorylation coupled luciferase assay
T1 sequence (whole entry): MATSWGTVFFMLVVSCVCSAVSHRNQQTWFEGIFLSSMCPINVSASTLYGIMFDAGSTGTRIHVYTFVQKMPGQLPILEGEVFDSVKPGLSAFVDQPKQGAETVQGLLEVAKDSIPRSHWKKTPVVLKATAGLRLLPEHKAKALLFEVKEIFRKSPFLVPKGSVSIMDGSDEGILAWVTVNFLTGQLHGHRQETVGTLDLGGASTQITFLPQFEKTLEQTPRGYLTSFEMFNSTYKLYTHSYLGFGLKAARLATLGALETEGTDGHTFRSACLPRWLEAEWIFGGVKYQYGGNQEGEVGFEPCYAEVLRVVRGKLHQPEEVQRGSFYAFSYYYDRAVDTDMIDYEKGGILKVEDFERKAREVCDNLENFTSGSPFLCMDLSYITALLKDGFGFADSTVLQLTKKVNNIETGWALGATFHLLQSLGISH

[2] = molecular target: T2, Uridylate kinase (Escherichia coli (strain K12)) (UniProt P0A7E9); experiment: Inhibition of recombinant Escherichia coli UMP kinase pyrH catalyzed UMP phosphorylation in presence of GTP and ATP incubated for 1 hr by luminescence based assay
T2 sequence (whole entry): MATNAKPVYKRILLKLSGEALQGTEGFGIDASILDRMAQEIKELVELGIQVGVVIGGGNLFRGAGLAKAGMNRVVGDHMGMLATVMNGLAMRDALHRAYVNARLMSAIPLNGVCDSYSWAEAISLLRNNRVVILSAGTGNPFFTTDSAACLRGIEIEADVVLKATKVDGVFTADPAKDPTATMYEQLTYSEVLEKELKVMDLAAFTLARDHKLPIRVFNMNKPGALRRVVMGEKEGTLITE

[3] = molecular target: T1, Nucleoside diphosphate phosphatase ENTPD5 (Homo sapiens); experiment: Inhibition of human recombinant ENTPD5 expressed in insect cells assessed as reduction in UDP hydrolysis up to 10 uM incubated for 1 hr in presence of UMP, GTP and ATP by Escherichia coli UMP kinase pyrH catalyzed UMP phosphorylation coupled luciferase assay
[4] = molecular target: T1, Nucleoside diphosphate phosphatase ENTPD5 (Homo sapiens); experiment: Inhibition of human recombinant ENTPD5 expressed in insect cells assessed as reduction in reduction in UDP hydrolysis by measuring inorganic phosphate release incubated for 1 hr by malachite green based assay

| Compound | inhibition [1] | inhibition [2] | inhibition [3] | inhibition [4] |
| --- | --- | --- | --- | --- |
| O=C(NC12CC3CC(CC(C3)C1)C2)N1CCN(C(=O)c2ccco2)CC1 | Active | inactive | Dose-dependent effect | Active |
| O=C(NCCNc1ccc([N+](=O)[O-])cc1)c1ccc(CSc2nnnn2-c2ccccc2)cc1 | Active | inactive | Dose-dependent effect | Active |
| O=C1/C(=C/c2ccc(-c3ccc(Cl)cc3)o2)SC(=S)N1Cc1ccco1 | Active | inactive | Dose-dependent effect | Active |
| O=C1NC(=S)N(c2ccccc2F)C(=O)/C1=C/c1cccn1-c1ccc(Cl)cc1 | Active | inactive | Dose-dependent effect | Active |
| O=C(CSc1nc2c([nH]c3ccccc32)c(=O)n1-c1ccccc1)N1CCN(c2ccccc2)CC1 | Active | inactive | Dose-dependent effect | Active |
| COc1cc(-c2ccc(/C=C3\SC(=N)N(c4nccs4)C3=O)o2)c(OC)cc1Cl | Active | inactive | Dose-dependent effect | Active |
| O=C(Nc1ccc(Oc2ccc(NC(=O)c3cccs3)cc2)cc1)c1cccs1 | Active | inactive | Dose-dependent effect | Active |
| O=C(NC(=S)Nc1cc(Cl)c(O)c(Cl)c1)c1cc2ccccc2o1 | Active | inactive | Dose-dependent effect | Active |
| COc1ccc(C(c2cc(C(C)(C)C)c(O)c(C(C)(C)C)c2)N2CCOCC2)cc1 (configuration not stated) | Active | inactive | Dose-dependent effect | Active |
| O=C1OC(c2ccccc2)OC(=O)C1=Cc1ccc(-c2cccc(Br)c2)o1 (configuration not stated) | Active | inactive | Dose-dependent effect | Active |
| O=S(=O)(c1cccc2cccnc12)N(CCc1csc2nc(-c3ccc4ccccc4c3)cn12)Cc1ccco1 | Active | inactive | Dose-dependent effect | Active |
| O=S(=O)(Nc1ccccc1F)c1ccc2c(c1)[C@@H]1C=CC[C@@H]1[C@@H](c1ccc(F)cc1)N2 | Active | inactive | Dose-dependent effect | Active |
| COc1ccc(OC)c(-c2cn3c(CCN(Cc4ccco4)S(=O)(=O)c4ccc5ccccc5c4)csc3n2)c1 | Active | inactive | Dose-dependent effect | Active |
| O=C1/C(=C/c2ccc(-c3cccc(C(F)(F)F)c3)o2)SC(=S)N1Cc1ccco1 | Active | inactive | Dose-dependent effect | Active |
| O=C(O)c1ccc(NC(=O)c2ccc3c(c2)C(=O)N(c2ccc(/N=N/c4ccccc4)cc2)C3=O)cc1 | Active | inactive | Dose-dependent effect | Active |
| CCc1ccc(NS(=O)(=O)c2ccc(N3C(=O)c4cc([N+](=O)[O-])cc5cc([N+](=O)[O-])cc(c45)C3=O)cc2)cc1 | Active | inactive | Dose-dependent effect | Active |
| Cc1ccc(C)c(-c2nn(-c3ccccc3)cc2C=C2C(=O)NC(=O)NC2=O)c1 | Active | inactive | Dose-dependent effect | Active |
| CCN(CC)c1ccc2cc(C(N)=O)/c(=N/c3cccc4ccccc34)oc2c1 | Active | inactive | Dose-dependent effect | Active |
| O=C(Cn1cc(/C=C2/C(=O)NC(=O)N(c3ccc4c(c3)OCO4)C2=O)c2ccccc21)Nc1ccccc1 | Active | inactive | Dose-dependent effect | Active |

| Compound | inhibition [1] | inhibition [2] | inhibition [3] | inhibition [4] |
| --- | --- | --- | --- | --- |
| O=S(=O)(Nc1cc(-c2c(O)ccc3ccccc23)c(O)c2ccccc12)c1ccc(F)cc1 | Active | inactive | Dose-dependent effect | Active |
| Cc1nn2cc(-c3ccccc3)cc2c2c(C)n(C)c(C)c12 | Active | inactive | Dose-dependent effect | Active |
| O=C1N=C2C=CC(I)=CC2C1NNc1cccc2cccnc12 (configuration not stated) | Active | inactive | Dose-dependent effect | Active |
| CN1C(=O)c2ccc(NC(=S)NC(=O)CC34CC5CC(CC(C5)C3)C4)cc2C1=O | Active | inactive | Dose-dependent effect | Active |
| Cc1cccc(Oc2ccc(N3C(=O)C=CC3=O)cc2)c1C | Active | inactive | Dose-dependent effect | Active |
| O=C1NC(=O)N(Cc2ccco2)C(=O)/C1=C\c1ccc(-c2ccc(Cl)c([N+](=O)[O-])c2)o1 | Active | inactive | Dose-dependent effect | Active |
| O=C1C=CC(=O)c2c1c(-c1ccccc1)nn2-c1ccccc1 | Active | inactive | Dose-dependent effect | Active |
| COc1cc(/C=C2/SC(=S)N(C3CCCCC3)C2=O)cc(Cl)c1O | Active | inactive | Dose-dependent effect | Active |
| COc1cc(C2Nc3cccc4cccc(c34)N2)cc(I)c1O | Active | inactive | Dose-dependent effect | Active |
| O=C1C=CC(Br)=C/C1=C/NNC(=O)c1cc2ccccc2cc1O | Active | inactive | Dose-dependent effect | Active |
| COC(=O)c1cccc2c1NC(c1ccc([N+](=O)[O-])cc1)C1CC=CC21 (configuration not stated) | Active | inactive | Dose-dependent effect | Active |
| CC(C)(C)c1cc(CN(CCO)CCO)cc(C(C)(C)C)c1O | Active | inactive | Dose-dependent effect | Active |
| CC1=NN(c2ccc(S(N)(=O)=O)cc2)C(=O)/C1=C/c1ccc(-c2ccc(C)cc2[N+](=O)[O-])o1 | Active | inactive | Dose-dependent effect | Active |
| S=C(NCc1ccccc1)Nc1ccc2nc(-c3ccco3)c(-c3ccco3)nc2c1 | Active | inactive | Dose-dependent effect | Active |
| Cc1ccc(/C=C/C(=O)Nc2nc3ccc(Cl)cc3s2)o1 | Active | inactive | Dose-dependent effect | Active |
| O=C(c1ccc(C(F)(F)F)cc1)N(CCc1csc2nc(-c3ccc4ccccc4c3)cn12)Cc1ccco1 | Active | inactive | Dose-dependent effect | Active |
| Cc1ccc(N2C(=O)/C(=C/c3cc(Br)cc(I)c3O)C(=O)NC2=S)cc1C | Active | inactive | Dose-dependent effect | Active |
| CCC(C)(C)C1CCc2c(sc(NC(=O)c3ccoc3C)c2C(N)=O)C1 (configuration not stated) | Active | inactive | Dose-dependent effect | Active |
| O=C(O)c1cccc(N2N=C(C(F)(F)F)/C(=C/c3ccc(-c4ccc(S(=O)(=O)Nc5nccs5)cc4)o3)C2=O)c1 | Active | inactive | Dose-dependent effect | Active |
